The values that follow come from patent US9174992B2, “Heterobicyclic compounds” (Amgen Inc., priority 2012, dated 2015).

Some results are limits rather than exact numbers.

The target in this experiment is PDE10A (UniProt Q9Y233). Description: PDE10 enzyme inhibition, IMAP TR-FRET assay (Example A, MPDE10A7 Enzyme Activity and Inhibition). It is filed as biochemical. The note with it: approximate IC50 value, Table 10. Summed up:
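Compounds were preincubated 60 min at room temperature with PDE10A enzyme or tissue homogenate, then fluorescein-labeled cAMP or cGMP was added for 90 min. After stopping with IMAP binding reagents, TR-FRET was read and IC50s were fitted with a four-parameter logistic equation.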

Usually IC50 stands for the point on the concentration scale where inhibition reaches its midpoint. Low values mean greater potency, high ones weaker potency. For `Cn1c(=O)n([C@H]2C[C@H](Nc3nc4ccccc4s3)C2)c2nccnc21` [Example 95, 1-(trans-3-(benzo[d]thiazol-2-ylamino)cyclobutyl)-3-methyl-1H-imidazo[4,5-b]pyrazin-2(3H)-one], the IC50 amounted to 0.971 nM.

Compound `O=c1[nH]c2cccnc2n1[C@H]1C[C@H](Nc2ccc3ccccc3n2)C1` [Example 96, 3-(trans-3-(quinolin-2-ylamino)cyclobutyl)-1H-imidazo[4,5-b]pyridin-2(3H)-one] displayed an IC50 of 1.09 nM.

With `O=c1[nH]c2cncnc2n1[C@H]1C[C@H](Nc2nc3ccccc3s2)C1` [Example 97, 9-(trans-3-(benzo[d]thiazol-2-ylamino)cyclobutyl)-7H-purin-8(9H)-one], 3.03 nM corresponded to half-maximal inhibition (IC50). The value for `O=c1[nH]c2cccnc2n1[C@H]1C[C@H](Nc2nc3c(F)cccc3s2)C1` [Example 98] was 4.82 nM; that for `O=c1[nH]c2cccnc2n1[C@H]1C[C@H](Nc2nc3cc(F)ccc3s2)C1` [Example 99, 3-(trans-3-((5-fluorobenzo[d]thiazol-2-yl)amino)cyclobutyl)-1H-imidazo[4,5-b]pyridin-2(3H)-one] was 7.7 nM; that for `O=c1oc2cccnc2n1[C@H]1C[C@H](Nc2nc3ccccc3s2)C1` [Example 100] was 10.3 nM. In the case of `O=c1[nH]c2cccnc2n1[C@H]1C[C@H](Nc2ccc3ccc(F)cc3n2)C1` [Example 101, 3-(trans-3-((7-fluoroquinolin-2-yl)amino)cyclobutyl)-1H-imidazo[4,5-b]pyridin-2(3H)-one], half-maximal inhibition (IC50) was put at 17.9 nM. The value for `O=c1[nH]c2cccnc2n1[C@H]1C[C@H](Nc2ncc3ccccc3n2)C1` [Example 102, 3-(trans-3-(quinazolin-2-ylamino)cyclobutyl)-1H-imidazo[4,5-b]pyridin-2(3H)-one] was 25.6 nM; that for `O=c1[nH]c2cccnc2n1[C@H]1C[C@@H](Nc2nc3ccccc3s2)C1` [Example 103, 3-(cis-3-(benzo[d]thiazol-2-ylamino)cyclobutyl)-1H-imidazo[4,5-b]pyridin-2(3H)-one] was 26.6 nM. In the case of `O=c1[nH]c2cccnc2n1[C@H]1CC[C@H](Nc2nc3ccccc3s2)CC1` [Example 104], the IC50 came out at 31.4 nM. As to `COc1ccc2ccc(N[C@H]3C[C@H](n4c(=O)[nH]c5cccnc54)C3)nc2c1` [Example 105, 3-(trans-3-((7-methoxyquinolin-2-yl)amino)cyclobutyl)-1H-imidazo[4,5-b]pyridin-2(3H)-one], the IC50 came to 35.5 nM. Then `Cn1c(=O)n([C@H]2C[C@@H](N(C)c3nc4ccccc4s3)C2)c2ncccc21` [Example 106, 3-(cis-3-(benzo[d]thiazol-2-yl(methyl)amino)cyclobutyl)-1-methyl-1H-imidazo[4,5-b]pyridin-2(3H)-one], with 43.1 nM; and `O=c1[nH]c2cccnc2n1[C@H]1CC[C@H](Nc2nc3cc(F)ccc3s2)CC1` [Example 107, 3-(trans-4-((5-fluorobenzo[d]thiazol-2-yl)amino)cyclohexyl)-1H-imidazo[4,5-b]pyridin-2(3H)-one], with 152 nM. Then `O=c1[nH]c2cccnc2n1[C@H]1CC[C@H](Nc2ccc3ccccc3n2)CC1` [Example 108, 3-(trans-4-(quinolin-2-ylamino)cyclohexyl)-1H-imidazo[4,5-b]pyridin-2(3H)-one], with 266 nM; and `O=c1[nH]c2cccnc2n1[C@H]1C[C@H](Nc2ncc3ccc(F)cc3n2)C1` [Example 109, 3-(trans-3-((7-fluoroquinazolin-2-yl)amino)cyclobutyl)-1H-imidazo[4,5-b]pyridin-2(3H)-one], with 339 nM; and `O=c1[nH]c2cccnc2n1[C@H]1CC[C@H](Nc2ncc3ccccc3n2)CC1` [Example 110, 3-(trans-4-(quinazolin-2-ylamino)cyclohexyl)-1H-imidazo[4,5-b]pyridin-2(3H)-one], with 461 nM. Regarding `O=c1[nH]c2cccnc2n1[C@H]1CC[C@H](Nc2ccc3ccc(F)cc3n2)CC1` [Example 111, 3-(trans-4-((7-fluoroquinolin-2-yl)amino)cyclohexyl)-1H-imidazo[4,5-b]pyridin-2(3H)-one], the IC50 worked out at 1770 nM. The value for `O=c1[nH]c2cccnc2n1[C@H]1CC[C@H](Nc2ncc3ccc(Cl)cc3n2)CC1` [Example 112, 3-(trans-4-((7-chloroquinazolin-2-yl)amino)cyclohexyl)-1H-imidazo[4,5-b]pyridin-2(3H)-one] was more than 10 nM; that for `Nc1nn([C@H]2C[C@H](Nc3nc4ccccc4s3)C2)c2ncccc12` [Example 113, N-(trans-3-(3-amino-1H-pyrazolo[3,4-b]pyridin-1-yl)cyclobutyl)benzo[d]thiazol-2-amine] was 77.1 nM. Then `c1ccc2sc(N[C@H]3C[C@H](n4nc(C5CC5)c5cccnc54)C3)nc2c1` [Example 114, N-(trans-3-(3-cyclopropyl-1H-pyrazolo[3,4-b]pyridin-1-yl)cyclobutyl)benzo[d]thiazol-2-amine], with 0.152 nM; and `FC(F)(F)c1nn([C@H]2C[C@H](Nc3nc4ccccc4s3)C2)c2ncccc12` [Example 115, N-(trans-3-(3-(trifluoromethyl)-1H-pyrazolo[3,4-b]pyridin-1-yl)cyclobutyl)benzo[d]thiazol-2-amine], with 1.7 nM; and `CC(=O)N1CCC(Nc2nn([C@H]3C[C@H](Nc4nc5ccccc5s4)C3)c3ncccc23)CC1` [Example 116, 1-(4-((1-(trans-3-(benzo[d]thiazol-2-ylamino)cyclobutyl)-1H-pyrazolo[3,4-b]pyridin-3-yl)amino)piperidin-1-yl)ethanone], with 3.38 nM. Compound `O=C(c1nc2ccccc2[nH]1)N1CC(n2c(=O)[nH]c3cccnc32)C1` [Example 117, 3-(1-(1H-benzo[d]imidazole-2-carbonyl)azetidin-3-yl)-1H-imidazo[4,5-b]pyridin-2(3H)-one] displayed an IC50 of 3.26 nM.

In the case of `O=C(c1nc2ccccc2s1)N1CC(N2C(=O)C3(CC3)c3cccnc32)C1` [Example 118, 1′-(1-(benzo[d]thiazole-2-carbonyl)azetidin-3-yl)spiro[cyclopropane-1,3′-pyrrolo[2,3-b]pyridin-]-2′(1′H)-one], 1.69 nM corresponded to half-maximal inhibition (IC50). With `CC1(C)C(=O)N(C2CCN(C(=O)c3ccccn3)CC2)c2ncccc21` [Example 119, 3,3-dimethyl-1-(1-picolinoylpiperidin-4-yl)-1H-pyrrolo[2,3-b]pyridin-2(3H)-one], 8.85 nM corresponded to half-maximal inhibition (IC50).

Take `CC1(C)C(=O)N(C2CCN(c3ccccn3)CC2)c2ncccc21` [Example 120, 3,3-dimethyl-1-(1-(pyridin-2-yl)piperidin-4-yl)-1H-pyrrolo[2,3-b]pyridin-2(3H)-one]: the IC50 came out at 0.315 nM.

The compound `Cc1ccc(N2CCC(N3C(=O)C(C)(C)c4cccnc43)CC2)nc1` [Example 121, 3,3-dimethyl-1-(1-(5-methylpyridin-2-yl)piperidin-4-yl)-1H-pyrrolo[2,3-b]pyridin-2(3H)-one] showed an IC50 of 0.049 nM. `COc1nc2cccnc2n1C1CCN(C(=O)c2nc3ccccc3[nH]2)CC1` [Example 122, (1H-benzo[d]imidazol-2-yl)(4-(2-methoxy-3H-imidazo[4,5-b]pyridine-3-yl)piperidin-1-yl)methanone] came in with an IC50 of 1.13 nM. Then `COc1nc2cccnc2n1C1CCN(c2nc3ccccc3s2)CC1` [Example 123, 2-(4-(2-methoxy-3H-imidazo[4,5-b]pyridine-3-yl)piperidin-1-yl)benzo[d]thiazole], with 2.24 nM.
